Test results as given in ChEMBL document CHEMBL4043066, “Drug Discovery Targeting Bromodomain-Containing Protein 4” (J Med Chem, 2017).

Legend:
MX1 [1] = assay: Antitumor activity against human MX1 cells xenografted subcutaneously in SCID mouse assessed as tumor growth inhibition at 100 mg/kg, po after day 17 relative to control; format: functional; details: MX1, 408 h, read-out: TGI
[2] = target: T1, Bromodomain-containing protein 4 (Homo sapiens, UniProt O60885); assay: Inhibition of GST-tagged BRD4 bromodomain 1 (44 to 168 residues) (unknown origin) using biotinylated acetyl-histone H4 peptide as substrate after 30 mins in dark by AlphaScreen assay
MV4-11 [3] = assay: Downregulation of BRD4 in human MV4-11 cells at 100 nM after 18 hrs by immunoblot analysis relative to control; format: functional
[4] = target: T1, Bromodomain-containing protein 4; assay: Inhibition of biotin-labeled acetylated peptide binding to BRD4 bromodomain 1 (unknown origin) expressed in Escherichia coli BL21 after 1 hr by BROMOscan assay
[5] = target: T1, Bromodomain-containing protein 4; assay: Inhibition of His-tagged BRD4 (unknown origin) using acetyl-histone H4 as substrate after 35 mins by TR-FRET assay
CREB-binding protein = CREB-binding protein (Homo sapiens, UniProt Q92793); assay: Inhibition of His-tagged CREBP (unknown origin) using acetyl-histone H4 as substrate after 35 mins by AlphaScreen assay
CREB-binding protein, sequence (Q92793 whole entry): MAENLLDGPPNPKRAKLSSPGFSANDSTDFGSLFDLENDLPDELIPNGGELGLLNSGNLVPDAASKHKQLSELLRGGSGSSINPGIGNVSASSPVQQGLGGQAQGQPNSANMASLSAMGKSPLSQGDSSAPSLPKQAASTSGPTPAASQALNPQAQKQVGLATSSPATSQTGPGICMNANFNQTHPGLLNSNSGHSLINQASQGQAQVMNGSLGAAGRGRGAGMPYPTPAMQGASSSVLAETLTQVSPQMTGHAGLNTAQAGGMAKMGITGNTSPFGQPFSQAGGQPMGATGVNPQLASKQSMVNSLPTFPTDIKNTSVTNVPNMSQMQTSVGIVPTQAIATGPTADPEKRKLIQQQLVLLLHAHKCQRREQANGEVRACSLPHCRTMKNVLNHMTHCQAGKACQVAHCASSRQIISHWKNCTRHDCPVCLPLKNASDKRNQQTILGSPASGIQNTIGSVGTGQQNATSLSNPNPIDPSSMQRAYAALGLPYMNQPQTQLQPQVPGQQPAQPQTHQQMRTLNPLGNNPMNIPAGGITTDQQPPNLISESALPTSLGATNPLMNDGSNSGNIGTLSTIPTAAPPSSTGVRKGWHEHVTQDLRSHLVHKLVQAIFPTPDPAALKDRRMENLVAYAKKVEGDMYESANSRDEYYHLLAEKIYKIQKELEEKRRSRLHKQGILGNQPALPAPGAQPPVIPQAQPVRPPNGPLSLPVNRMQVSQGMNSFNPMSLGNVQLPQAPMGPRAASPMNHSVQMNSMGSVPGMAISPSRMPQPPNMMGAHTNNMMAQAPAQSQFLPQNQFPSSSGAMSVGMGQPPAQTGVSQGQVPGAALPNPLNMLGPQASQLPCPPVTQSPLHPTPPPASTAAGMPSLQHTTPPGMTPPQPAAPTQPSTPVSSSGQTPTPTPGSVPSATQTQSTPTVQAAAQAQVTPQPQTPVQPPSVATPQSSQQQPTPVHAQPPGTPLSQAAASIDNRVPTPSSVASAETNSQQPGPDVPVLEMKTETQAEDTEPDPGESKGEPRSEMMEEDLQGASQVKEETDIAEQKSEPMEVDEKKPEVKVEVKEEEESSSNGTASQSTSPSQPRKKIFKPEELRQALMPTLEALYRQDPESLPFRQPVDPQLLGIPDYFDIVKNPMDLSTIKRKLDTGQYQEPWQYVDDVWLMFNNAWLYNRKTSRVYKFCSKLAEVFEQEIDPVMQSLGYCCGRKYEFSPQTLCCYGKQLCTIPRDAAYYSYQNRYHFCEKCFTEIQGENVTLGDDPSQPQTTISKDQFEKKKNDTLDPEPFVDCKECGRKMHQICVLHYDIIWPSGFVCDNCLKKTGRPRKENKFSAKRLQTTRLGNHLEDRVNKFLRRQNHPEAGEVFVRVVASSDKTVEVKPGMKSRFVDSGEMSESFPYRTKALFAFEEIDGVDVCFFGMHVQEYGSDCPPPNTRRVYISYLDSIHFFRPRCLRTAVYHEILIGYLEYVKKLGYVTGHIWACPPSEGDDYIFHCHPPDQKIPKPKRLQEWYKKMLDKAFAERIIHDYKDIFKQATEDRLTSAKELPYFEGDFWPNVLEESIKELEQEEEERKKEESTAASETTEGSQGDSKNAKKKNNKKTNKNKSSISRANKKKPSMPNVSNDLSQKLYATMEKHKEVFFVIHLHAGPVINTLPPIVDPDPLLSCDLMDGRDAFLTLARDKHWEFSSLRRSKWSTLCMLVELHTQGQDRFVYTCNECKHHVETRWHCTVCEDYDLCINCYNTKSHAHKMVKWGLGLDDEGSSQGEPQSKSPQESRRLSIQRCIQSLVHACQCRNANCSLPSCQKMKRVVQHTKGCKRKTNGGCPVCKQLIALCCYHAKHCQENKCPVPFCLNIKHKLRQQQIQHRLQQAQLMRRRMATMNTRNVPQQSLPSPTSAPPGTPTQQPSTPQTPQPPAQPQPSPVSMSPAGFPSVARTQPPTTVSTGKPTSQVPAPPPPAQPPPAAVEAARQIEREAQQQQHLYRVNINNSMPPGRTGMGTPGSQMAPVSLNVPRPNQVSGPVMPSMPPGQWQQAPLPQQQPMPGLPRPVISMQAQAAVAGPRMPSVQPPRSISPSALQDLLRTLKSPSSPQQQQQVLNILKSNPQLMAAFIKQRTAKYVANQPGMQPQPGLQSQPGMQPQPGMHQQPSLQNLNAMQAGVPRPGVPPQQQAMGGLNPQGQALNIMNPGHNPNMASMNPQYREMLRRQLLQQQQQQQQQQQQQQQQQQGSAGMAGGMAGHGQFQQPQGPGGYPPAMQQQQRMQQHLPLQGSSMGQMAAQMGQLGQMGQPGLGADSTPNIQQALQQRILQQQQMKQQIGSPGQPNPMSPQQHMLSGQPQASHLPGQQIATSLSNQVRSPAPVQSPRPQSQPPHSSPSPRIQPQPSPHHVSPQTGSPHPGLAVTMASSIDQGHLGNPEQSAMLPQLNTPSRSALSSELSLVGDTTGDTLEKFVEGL

MV4-11 [6] = assay: Antiproliferative activity against human MV4-11 cells after 4 days by CellTiter-Glo assay; format: functional, cell-based; details: MV4-11, 96 h
MV4-11 [7] = assay: Antiproliferative activity against human MV4-11 cells after 72 hrs by alamarBlue assay; format: functional, cell-based; details: MV4-11, 72 h
MX1 [8] = assay: Antiproliferative activity against human MX1 cells after 72 hrs by CellTiter-Glo assay; format: functional, cell-based; details: MX1, 72 h
MX1 [9] = assay: Antiproliferative activity against human MX1 cells incubated for >= 72 hrs by CellTiter-Glo assay; format: functional, cell-based; details: MX1, 72 h
[10] = Metabolic stability in CD1 mouse liver microsomes assessed as compound remaining at 1 uM after 30 mins in presence of NADPH by LC/MS analysis; format: ADME, microsome; details: read-out: Stability
[11] = Metabolic stability in human liver microsomes assessed as compound remaining at 1 uM after 30 mins in presence of NADPH by LC/MS analysis; format: ADME, microsome; details: read-out: Stability
[12] = target: T1, Bromodomain-containing protein 4; assay: Inhibition of GST-tagged BRD4 (unknown origin) using biotinylated acetyl-histone H4 peptide as substrate after 30 mins by AlphaScreen assay
[13] = target: T1, Bromodomain-containing protein 4; assay: Inhibition of His-tagged BRD4 bromodomain 1 (K57 to E168 residues) (unknown origin) after 1 hr by TR-FRET assay
[14] = target: T1, Bromodomain-containing protein 4; assay: Inhibition of His-tagged BRD4 bromodomain 2 (E352 to E168 residues) (unknown origin) after 1 hr by TR-FRET assay
[15] = target: T1, Bromodomain-containing protein 4; assay: Inhibition of recombinant His-tagged BRD4 (unknown origin) using biotinylated acetyl-histone H4 as substrate by AlphaLisa assay
Mus musculus = organism: Mus musculus; assay: Antiinflammatory activity in CD1 mouse assessed as inhibition of LPS-induced IL-6 production pretreated for 1 hr followed by LPS stimulation after 2 hrs by immunoassay relative to control; format: functional
[16] = target: T1, Bromodomain-containing protein 4; assay: Inhibition of His-epitope tagged BRD4 bromodomain 1 (44 to 168 residues) (unknown origin) using biotinylated histone H4 as substrate after 1 hr by AlphaScreen assay
[17] = target: T1, Bromodomain-containing protein 4; assay: Inhibition of His-epitope tagged BRD4 bromodomain 2 (333 to 460 residues) (unknown origin) using biotinylated histone H4 as substrate after 1 hr by AlphaScreen assay
[18] = target: T1, Bromodomain-containing protein 4; assay: Inhibition of BRD4 bromodomain 1 (unknown origin) using biotinylated substrate after 1 hr by AlphaLisa assay
[19] = target: T1, Bromodomain-containing protein 4; assay: Inhibition of recombinant His-tagged BRD4 bromodomain 1 (K57 to E168 residues) (unknown origin) after 1 hr by TR-FRET assay
[20] = target: T1, Bromodomain-containing protein 4; assay: Inhibition of recombinant His-tagged BRD4 bromodomain 2 (E352 to E168 residues) (unknown origin) after 1 hr by TR-FRET assay
[21] = target: T1, Bromodomain-containing protein 4; assay: Inhibition of His-tagged BRD4 (44 to 477 residues) (unknown origin) using acetyl-histone H4 as substrate after 35 mins by TR-FRET assay
MV4-11 [22] = assay: Growth inhibition of human MV4-11 cells after 4 days by CellTiter-Glo assay; format: functional; details: MV4-11, 96 h
[23] = target: Bromodomain-containing protein 4 (Homo sapiens, UniProt O60885, Y390A); assay: Inhibition of recombinant human N-terminal His6-tagged BRD4 bromodomain 2 (1 to 477 residues) Y390A mutant after 30 mins in dark by TR-FRET assay
[24] = tested on: Bromodomain-containing protein 4 (Homo sapiens), O60885 [UNDEFINED MUTATION]; assay: Selectivity ratio of IC50 for recombinant human N-terminal His6-tagged BRD4 bromodomain 1 (1 to 477 residues) Y97A mutant to IC50 for recombinant human N-terminal His6-tagged BRD4 bromodomain 2 (1 to 477 residues) Y390A mutant

Cc1[nH]c(-c2cc(NS(C)(=O)=O)ccc2Oc2ccccc2)c2c1C(=O)CCC2
inhibition in vivo at 100 mg/kg (MX1 [1]): 80%

COC[C@@H](C)n1c(-c2cn3c(C)nnc3c(NC(C)C)n2)nc2cc3c(cc21)N(C(C)C)S(=O)(=O)C3(C)C
IC50 [2]: 17 nM

Cc1sc2c(c1C)C(c1ccc(Cl)cc1)=N[C@@H](CC(=O)NCCCCNC(=O)COc1cccc3c1C(=O)N(C1CCC(=O)NC1=O)C3=O)c1nnc(C)n1-2 (stereo partly drawn)
Activity (MV4-11 [3]): >80%

Cc1sc2c(c1C)C(c1ccc(Cl)cc1)=N[C@@H](CC(=O)OCCCCCCO)c1nnc(C)n1-2
Kd [4]: 0.43 nM

Cc1cc(N2C(=O)c3c(c(CO)nn3C3CC3)[C@H]2c2ccc(Cl)cc2)cn2c(C)nnc12
IC50 [5]: < 11 nM | IC50 (CREB-binding protein): 1400 nM | IC50 (MV4-11 [6]): 9.4 nM

CCNC(=O)CC1N=C(C2CCCCC2)c2cc(OC)ccc2-c2cn(C)c(=O)cc21 (stereo not drawn)
EC50 (MV4-11 [7]): 8 nM

CNC(=O)N1N=C(c2ccc(N3CC4(CCS4(=O)=O)C3)cc2)c2cc(-n3nc(C)cc3C)ccc2C[C@@H]1C
IC50 (MV4-11 [7]): 80 nM

CCOc1cc(=O)n(C)cc1-c1cc(N(CC2CC2)S(=O)(=O)CC)ccc1Oc1ccc(F)cc1F
EC50 (MX1 [8]): 233 nM

Cc1[nH]c(-c2ccccc2NC2CCCCC2F)cc1C(N)=O (stereo not drawn)
EC50 (MX1 [9]): 433 nM

COc1cc2c(cc1-c1c(C)noc1C)ncc1nc(C3CCC(F)(F)CC3)n([C@H](C)COC(F)F)c12
remaining at 0.5 h, 1 µM [10]: 35% | remaining at 0.5 h, 1 µM [11]: 62%

CCn1nc(C)c2c1C(=O)N(c1cc(C)c(=O)n(C)c1)C2c1ccc(Cl)cc1F (stereo not drawn)
IC50 (MV4-11 [6]): 7.7 nM

Cc1noc(C)c1-c1ccc2c(c1)C(c1ccccc1)N1CCCOC21 (stereo not drawn)
IC50 [12]: 36 nM

Cc1sc2c(c1C)C(c1ccc(Cl)cc1)=N[C@H](CC(=O)OC1CCC(O)CC1)c1nnc(C)n1-2 (stereo partly drawn)
Kd [4]: 1.3 nM

Cn1cc(-c2cc(S(C)(=O)=O)ccc2N[C@H]2CC[C@H](NCc3ccc4ccccc4c3)CC2)c2cc[nH]c2c1=O
Ki [13]: 1.1 nM | Ki [14]: 2.2 nM | EC50 (MX1 [9]): 10 nM

CCS(=O)(=O)c1ccc2c(c1)-c1cn(C)c(=O)cc1OCCCCc1cc(Cl)ccc1O2
EC50 (MX1 [8]): 5.7 nM | IC50 [15]: 0.93 nM | inhibition (INH) (Mus musculus): 83%

CC(=O)N1c2ccc(-c3cnn(C4CC4)c3)cc2C(OC[C@H]2CC2(F)F)C[C@H]1C (stereo partly drawn)
IC50 [16]: < 100 nM | IC50 [17]: < 50 nM

CCS(=O)(=O)Nc1ccc(Oc2ccc(F)cc2F)c(-c2cn(C)c(=O)c3[nH]c(C#CCOC)cc23)c1
Ki [13]: 1.6 nM | EC50 (MX1 [9]): 48 nM

Cc1cc(-c2nc3ccc(N4CCOC[C@@H]4C)cc3n2[C@@H](C)c2ccccc2)cn(C)c1=O
IC50 [2]: 12 nM

CCNC(=O)CC1N=C(c2c(F)cccc2F)c2cc(OC)ccc2-c2cn(C)c(=O)cc21 (stereo not drawn)
EC50 (MV4-11 [7]): 13 nM | IC50 [18]: < 0.5 nM

CCOc1cc(=O)n(C)cc1-c1cc(NC(=O)CCc2ccccc2)ccc1Oc1ccc(F)cc1F
IC50 [19]: 69 nM | IC50 [20]: 11 nM | EC50 (MX1 [8]): 398 nM

Cc1noc(C)c1-c1ccc2c(c1)C(c1ccccc1)N(C)C(=O)N2 (stereo not drawn)
IC50 [12]: 27 nM

CC(=O)N1CC(n2cc(C3CC3)c3c2C(c2ccc(Cl)cc2)N(c2cc(C)c4nnn(C)c4n2)C3=O)C1 (stereo not drawn)
IC50 [21]: < 11 nM | GI50 (MV4-11 [22]): 0.3 nM

CC(=O)N1c2ccc(C#N)cc2[C@H](Nc2ncccc2F)[C@@H](C)[C@@H]1C1CC1
IC50 [23]: < 100 nM | Ratio IC50 [24]: 100

Cc1noc(C)c1-c1ccc2c(c1)[C@H](c1ccccc1)N(C)C2=O
IC50 [12]: 14 nM
